Laboratory results published in patent publication US20180271873A1, “METHODS FOR TREATING VIRAL INFECTIONS” (priority 2015, published 2018).

Tested on: GFP-expressing Zaire Ebolavirus Mayinga-GFP
Assay: microbe, parasite or virus in culture
Format: cell-based
Conditions: HeLa, read-out: Activity (Biological activity, EC50)

SMILES | EC50 [µM]
Cc1cccc(/C=N/Nc2cc(N3CCOCC3)nc(OCc3ncccn3)n2)c1 [Compound 5, (E)-4-(6-(2-(3-Methylbenzylidene)hydrazinyl)-2-(pyrimidin-2-ylmethoxy)pyrimidin-4-yl)morpholine] | < 1
Cc1ccccc1/C=N/Nc1cc(N2CCOCC2)nc(OCCc2ccccn2)n1 [Compound 10, (E)-4-(6-(2-(2-Methylbenzylidene)hydrazinyl)-2-(2-(pyridin-2-yl)ethoxy)pyrimidin-4-yl)morpholine] | < 1
Cc1cccc(/C=N/Nc2cc(N3CCOCC3)nc(OCCc3ccccn3)n2)c1 [Compound 11, (E)-4-(6-(2-(3-Methylbenzylidene)hydrazinyl)-2-(2-(pyridin-2-yl)ethoxy)pyrimidin-4-yl)morpholine] | < 1
C(=N\Nc1cc(N2CCOCC2)nc(OCCc2ccccn2)n1)/c1cncnc1 [Compound 12, (E)-4-(2-(2-(Pyridin-2-yl)ethoxy)-6-(2-(pyrimidin-5-ylmethylene)hydrazinyl)pyrimidin-4-yl)morpholine] | > 50
Cc1cccc(/C=N/Nc2cc(N3CCOCC3)nc(OCC(C)c3ccccn3)n2)c1 (centres unmarked) [Compound 13, (E)-4-(6-(2-(3-Methylbenzylidene)hydrazinyl)-2-(2-(pyridin-2-yl)propoxy)pyrimidin-4-yl)morpholine] | < 1
Cc1cccc(/C=N/Nc2cc(N3CCOCC3)nc(OCCCc3ccccn3)n2)c1 [Compound 14, (E)-4-(6-(2-(3-Methylbenzylidene)hydrazinyl)-2-(3-(pyridin-2-yl)propoxy)pyrimidin-4-yl)morpholine] | < 1
Cc1cccc(/C=N/Nc2cc(N3CCOCC3)nc(Oc3ccc4cccnc4c3)n2)c1 [Compound 15, (E)-4-(6-(2-(3-Methylbenzylidene)hydrazinyl)-2-(quinolin-7-yloxy)pyrimidin-4-yl)morpholine] | < 1
Cc1cccc(/C=N/Nc2cc(N3CCS(=O)(=O)CC3)nc(OCCc3ccccn3)n2)c1 [Compound 16] | > 50
C(=N\Nc1cc(N2CCOCC2)nc(OCCc2ccccn2)n1)/c1ccncc1 [Compound 17, (E)-4-(2-(2-(Pyridin-2-yl)ethoxy)-6-(2-(pyridin-4-ylmethylene)hydrazinyl)pyrimidin-4-yl)morpholine] | > 50
Cc1cccc(/C=N/Nc2cc(N3CCOCC3)nc(NCc3ccccn3)n2)c1 [Compound 18, (E)-4-(2-(3-Methylbenzylidene)hydrazinyl)-6-morpholino-N-(pyridin-2-ylmethyl)pyrimidin-2-amine] | < 1
Cc1cc(/C=N/Nc2cc(N3CCOCC3)nc(OCCc3ccccn3)n2)ccn1 [Compound 19, (E)-4-(6-(2-((2-Methylpyridin-4-yl)methylene)hydrazinyl)-2-(2-(pyridin-2-yl)ethoxy)pyrimidin-4-yl)morpholine] | > 50
Cc1cccc(/C=N/Nc2cc(N3CCOCC3)nc(OCCc3ccccc3)n2)c1 [Compound 20, (E)-4-(6-(2-(3-Methylbenzylidene)hydrazinyl)-2-phenethoxypyrimidin-4-yl)morpholine] | 1 to 50
Cc1cccc(/C=N/Nc2cc(N3CCCCC3)nc(OCCc3ccccn3)n2)c1 [Compound 21, (E)-4-(2-(3-Methylbenzylidene)hydrazinyl)-6-(piperidin-1-yl)-2-(2-(pyridin-2-yl)ethoxy)pyrimidine] | > 50
Cc1cccc(/C=N/Nc2cc(N3CC(C)OC(C)C3)nc(OCCc3ccccn3)n2)c1 (centres unmarked) [Compound 22, (E)-2,6-Dimethyl-4-(6-(2-(3-methylbenzylidene)hydrazinyl)-2-(2-(pyridin-2-yl)ethoxy)pyrimidin-4-yl)morpholine] | 1 to 50
Cc1cccc(/C=N/Nc2cc(N3CCOCC3)nc(OCCc3ncccn3)n2)c1 [Compound 23, (E)-4-(6-(2-(3-Methylbenzylidene)hydrazinyl)-2-(2-(pyrimidin-2-yl)ethoxy)pyrimidin-4-yl)morpholine] | < 1
CCCN(CCC)c1cc(N/N=C/c2cccc(C)c2)nc(OCCc2ncccn2)n1 [Compound 24, (E)-6-(2-(3-Methylbenzylidene)hydrazinyl)-N,N-dipropyl-2-(2-(pyrimidin-2-yl)ethoxy)pyrimidin-4-amine] | > 50
Cc1cccc(/C=N/Nc2cc(N3CCOCC3)nc(Oc3ccccn3)n2)c1 [Compound 25, (E)-4-(6-(2-(3-Methylbenzylidene)hydrazinyl)-2-(pyridin-2-yloxy)pyrimidin-4-yl)morpholine] | < 1
Cc1cccc(/C=N/Nc2cc(N3CCSCC3)nc(OCCc3ccccn3)n2)c1 [Compound 26, (E)-4-(6-(2-(3-Methylbenzylidene)hydrazinyl)-2-(2-(pyridin-2-yl)ethoxy)pyrimidin-4-yl)thiomorpholine] | 1 to 50
Cc1cccc(/C=N/Nc2cc(N3CCOCC3)nc(-c3cccc(O)c3)n2)c1 [Compound 27, (E)-3-(4-(2-(3-Methylbenzylidene)hydrazinyl)-6-morpholinopyrimidin-2-yl)phenol] | 1 to 50

SMILES | EC50 [µM]
Cc1cccc(/C=N/Nc2cc(N3CCOCC3)nc(OC(C)Cc3ccccn3)n2)c1 (centres unmarked) [Compound 28, (E)-4-(6-(2-(3-Methylbenzylidene)hydrazinyl)-2-(1-(pyridin-2-yl)propan-2-yloxy)pyrimidin-4-yl)morpholine] | < 1
Cc1cccc(/C=N/Nc2cc(N3CCOCC3)nc(OCCc3ccncn3)n2)c1 [Compound 29, (E)-4-(6-(2-(3-Methylbenzylidene)hydrazinyl)-2-(2-(pyrimidin-4-yl)ethoxy)pyrimidin-4-yl)morpholine] | 1 to 50
Cc1cccc(/C=N/Nc2cc(N3CCOCC3)nc(-c3cccc(-c4ccccn4)c3)n2)c1 [Compound 30, (E)-4-(6-(2-(3-Methylbenzylidene)hydrazinyl)-2-(3-(pyridin-2-yl)phenyl)pyrimidin-4-yl)morpholine] | 1 to 50
COc1c(N/N=C/c2cccc(C)c2)nc(OCCc2ccccn2)nc1N1CCOCC1 [Compound 31, (E)-4-(5-Methoxy-6-(2-(3-methylbenzylidene)hydrazinyl)-2-(2-(pyridin-2-yl)ethoxy)pyrimidin-4-yl)morpholine] | 1 to 50
Cc1cccc(/C=N/Nc2nc(OCCc3ccccn3)nc(N3CCOCC3)c2C)c1 [Compound 32, (E)-4-(5-Methyl-6-(2-(3-methylbenzylidene)hydrazinyl)-2-(2-(pyridin-2-yl)ethoxy)pyrimidin-4-yl)morpholine] | 1 to 50
FC(F)(F)c1cccc(/C=N/Nc2cc(N3CCOCC3)nc(OCCc3ccccn3)n2)c1 [Compound 33, (E)-4-(2-(2-(Pyridin-2-yl)ethoxy)-6-(2-(3-(trifluoromethyl)benzylidene)hydrazinyl)pyrimidin-4-yl)morpholine] | < 1
C/C(=N\Nc1cc(N2CCOCC2)nc(OCCc2ccccn2)n1)c1cccc(C)c1 [Compound 34, (E)-4-(2-(2-(Pyridin-2-yl)ethoxy)-6-(2-(1-m-tolylethylidene)hydrazinyl)pyrimidin-4-yl)morpholine] | < 1
Cc1cccc(/C=N/Nc2cc(N3CCCOCC3)nc(OCCc3ccccn3)n2)c1 [Compound 35, (E)-4-(6-(2-(3-Methylbenzylidene)hydrazinyl)-2-(2-(pyridin-2-yl)ethoxy)pyrimidin-4-yl)-1,4-oxazepane] | 1 to 50
Cc1cccc(/C=N/Nc2cc(N3CCOCC3)nc(OCC(C)(C)c3ccccc3)n2)c1 [Compound 36, (E)-4-(2-(2-Methyl-2-phenylpropoxy)-6-(2-(3-methylbenzylidene)hydrazinyl)pyrimidin-4-yl)morpholine] | 1 to 50
Cc1cccc(/C=N/N(C)c2cc(N3CCOCC3)nc(OCCc3ccccn3)n2)c1 [Compound 37, (E)-4-(6-(1-Methyl-2-(3-methylbenzylidene)hydrazinyl)-2-(2-(pyridin-2-yl)ethoxy)pyrimidin-4-yl)morpholine] | 1 to 50
Cc1cccc(/C=N/Nc2nc(OCCc3ccccn3)nc(N3CCOCC3)c2C#N)c1 [Compound 38, (E)-4-(2-(3-Methylbenzylidene)hydrazinyl)-6-morpholino-2-(2-(pyridin-2-yl)ethoxy)pyrimidine-5-carbonitrile] | > 50
Cc1cccc(/C=N/Nc2nc(OCCc3ccccn3)nc(N3CCOCC3)c2Cl)c1 [Compound 39, (E)-4-(5-Chloro-6-(2-(3-methylbenzylidene)hydrazinyl)-2-(2-(pyridin-2-yl)ethoxy)pyrimidin-4-yl)morpholine] | > 50
Cc1cccc(/C=N/Nc2nc(OCCc3ccccn3)nc(N3CCOCC3)c2F)c1 [Compound 40, (E)-4-(5-Fluoro-6-(2-(3-methylbenzylidene)hydrazinyl)-2-(2-(pyridin-2-yl)ethoxy)pyrimidin-4-yl)morpholine] | > 50
Cc1cccc(/C=N/Nc2cc(C3CCOCC3)nc(OCCc3ccccn3)n2)c1 [Compound 41, (E)-4-(2-(3-Methylbenzylidene)hydrazinyl)-2-(2-(pyridin-2-yl)ethoxy)-6-(tetrahydro-2H-pyran-4-yl)pyrimidine] | > 50
Cc1cccc(/C=N/Nc2cc(N3CCN(C)CC3)nc(OCCc3ccccn3)n2)c1 [Compound 42, (E)-4-(2-(3-Methylbenzylidene)hydrazinyl)-6-(4-methylpiperazin-1-yl)-2-(2-(pyridin-2-yl)ethoxy)pyrimidine] | > 50
Cc1cccc(/C=N/Nc2cc(N3CCOCC3)nc(OCCc3ccc(N)nc3)n2)c1 [Compound 43, (E)-5-(2-(4-(2-(3-Methylbenzylidene)hydrazinyl)-6-morpholinopyrimidin-2-yloxy)ethyl)pyridin-2-amine] | > 50
Cc1cccc(/C=N/Nc2cc(N3CCOCC3)nc(OCCc3cnccn3)n2)c1 [Compound 44, (E)-4-(6-(2-(3-Methylbenzylidene)hydrazinyl)-2-(2-(pyrazin-2-yl)ethoxy)pyrimidin-4-yl)morpholine] | 1 to 50
Cc1cccc(/C=N/Nc2cc(N3CCOCC3)nc(OCC(F)(F)c3ccccc3)n2)c1 [Compound 45, (E)-4-(2-(2,2-Difluoro-2-phenylethoxy)-6-(2-(3-methylbenzylidene)hydrazinyl)pyrimidin-4-yl)morpholine] | 1 to 50
C(=N\Nc1cc(N2CCOCC2)nc(OCCc2ccccn2)n1)/c1ccccc1 [Compound 46, (E)-4-(6-(2-Benzylidenehydrazinyl)-2-(2-(pyridin-2-yl)ethoxy)pyrimidin-4-yl)morpholine] | 1 to 50
